Data: patent US10336682B1, “Hydroxytyrosol shikimic acid ester for treating cardiovascular deceases and a method of preparing the same” (SHAANXI UNIVERSITY OF SCIENCE AND TECHNOLOGY, priority 2019, dated 2019)

Columns and labels:
thromboxane B2 (TXB2) = experiment: Measurement of TXB2 in rat plasma after intragastric administration; assay type: in vivo, SD rats; conditions: for TXB2 level in rat plasma: after 20 days, male SD rats
Source text: (§1) Measurement of thromboxane B2 (TXB2), 6-keto prostaglandin F1a (6-Ke-PGF1a) and prostaglandin E2 (PGE2) in rat plasma by enzyme-linked immunosorbent assay
(§2) Experimental materials: clean grade SD rats, body weight 150-250 g, male; TXB2 radioimmunoassay kit, 6-Ke-PGF1a radioimmunoassay kit, PGE2 radioimmunoassay kit, Shanghai Bairui Biotechnology Co., Ltd.
(§3) Experimental methods: 32 rats were randomly divided into 4 groups, 8 rats in each group. After 2 days of normal feeding, blood was taken from the jugular vein of each rat, and the plasma was separated and frozen at −20° C. On the next day, rats in the experimental groups were intragastrically administered with low doses of hydroxytyrosol shikimic acid ester (experimental group 1), medium dose of hydroxytyrosol shikimic acid ester (experimental group 2) and high-dose hydroxytyrosol shikimic acid ester (experimental group 3) at a dose of 1 mL/100 g. Rats in the control group were intragastrically administered with the same amount of normal saline. After 20 days, blood was taken from the jugular vein of each rat, anticoagulated, and the plasma was separated and frozen at −20° C. The contents of plasma TXB2, 6-Ke-PGF1A and PGE2 in each group of rats were determined according to TXB2, 6-Ke-PGF1a and PGE2 kit methods.

prostaglandin E2 (PGE2) = experiment: Measurement of PGE2 in rat plasma after intragastric administration; assay type: in vivo, SD rats; conditions: for PGE2 level in rat plasma: after 20 days, male SD rats
Source text: as §1, §2, §3

blood clot (thrombus) = experiment: Measurement of thrombus resolution rate: mouse blood clots incubated with test solution; parameters: species or system Kunming mice; conditions: for Resolution/% (thrombus resolution rate): 2 mL solution on mouse blood clot, 6 hours at 37° C.
Procedure: Measurement of Thrombus Resolution Rate in Mice
Experimental materials: Clean-grade Kunming mice, weighing 20-28 g each, half male and half female; urokinase (Shanghai Maclean Biotechnology Co., Ltd.)
Experimental methods: 40 healthy Kunming mice were randomly divided into 5 groups according to their body weight, 8 in each group, half male and half female. One group of mice was selected as blank control. 1 mL of blood was taken from each mouse of the blank control group. After the blood was solidified, the formed blood clot (thrombus) was rinse with physiological saline for 30 minutes, and dried and weighed. The average weight of blood clot was calculated as W. Other groups of mice were treated with the same method. The blood clots were rinsed, and placed in cryotubes. 2 mL solutions of urokinase (positive control group), a low dose of hydroxytyrosol shikimic acid ester (experiment group 1), a medium dose of hydroxytyrosol shikimic acid ester (experimental group 2), and a high dose of hydroxytyrosol shikimic acid ester (experimental group 3) were added to the blood clots. For the blank control group, an equal volume of physiological saline was added to the blood clot. After incubating for 6 hours in a 37° C. incubator, the clots were taken out and rinsed with physiological saline for 30 min. After drying and weighing, the average weight of the blood clot was recorded as G, and the resolution rate of the blood clot was calculated according to the following formula. Thrombus Resolution Rate (%)=[(W−G)/W]×100%

[1] = system: 6-keto prostaglandin F1a (6-Ke-PGF1a); experiment: Measurement of 6-Ke-PGF1a in rat plasma after intragastric administration; assay type: in vivo, SD rats; conditions: for 6-Ke-PGF1a level in rat plasma: after 20 days, male SD rats
Source text: as §1, §2, §3

[2] = compared with the blank control group, 25-250 mg/Kg · d

Compound | TXB2 level in rat plasma (thromboxane B2 (TXB2); 25 mg/Kg · d intragastric) | TXB2 level in rat plasma (thromboxane B2 (TXB2); 250 mg/Kg · d intragastric) | content of TXB2 in rat plasma, in words (thromboxane B2 (TXB2); [2]) | TXB2 level in rat plasma (thromboxane B2 (TXB2); intragastric) | PGE2 level in rat plasma (prostaglandin E2 (PGE2); 25 mg/Kg · d intragastric) | PGE2 level in rat plasma (prostaglandin E2 (PGE2); 50 mg/Kg · d intragastric) | PGE2 level in rat plasma (prostaglandin E2 (PGE2); 250 mg/Kg · d intragastric) | content of PGE2 in rat plasma, in words (prostaglandin E2 (PGE2); [2]) | Resolution/% (thrombus resolution rate) (blood clot (thrombus); 2.5 mg/mL (low dose, experimental group 1)) | Resolution/% (thrombus resolution rate) (blood clot (thrombus); 5 mg/mL (medium dose, experimental group 2)) | Resolution/% (thrombus resolution rate) (blood clot (thrombus); 10 mg/mL (high dose, experimental group 3)) | blood clot resolution (thrombolytic) effect, in words (blood clot (thrombus); compared with the blank control group, 2.5-10 mg/mL) | 6-Ke-PGF1a level in rat plasma ([1]; 25 mg/Kg · d intragastric) | 6-Ke-PGF1a level in rat plasma ([1]; 50 mg/Kg · d intragastric) | 6-Ke-PGF1a level in rat plasma ([1]; 250 mg/Kg · d intragastric) | content of 6-Ke-PGF1a in rat plasma, in words ([1]; compared with the blank control group, 25-250 mg/Kg · d, no obvious dose-dependent relationship) | Resolution/% (thrombus resolution rate) (blood clot (thrombus); 0.5 U/mL)
O=C(OCCc1ccc(O)c(O)c1)C1=C[C@@H](O)[C@@H](O)[C@H](O)C1 [hydroxytyrosol shikimic acid ester] | 4.93 ± 0.12 pg/mL | 3.12 ± 0.14 pg/mL | reduced in a dose-dependent manner | 4.38 ± 0.22 pg/mL | 26.18 ± 0.21 pg/mL | 24.22 ± 0.14 pg/mL | 20.87 ± 0.19 pg/mL | reduced in a dose-dependent manner | 6.33 ± 0.19 % | 7.04 ± 0.41 % | 8.93 ± 0.45 % | significant thrombolytic effect | 76.46 ± 0.17 pg/mL | 85.40 ± 0.32 pg/mL | 81.36 ± 0.28 pg/mL | increased | 
urokinase [reference compound] |  |  |  |  |  |  |  |  |  |  |  |  |  |  |  |  | 12.38 ± 0.27 %
